Experiment [1] has as its target c-Jun N-terminal kinase, JNK (Homo sapiens) (UniProt P45983+P53779+P45984). The experiment can be described thus: Induction of JNK phosphorylation in human multidrug resistant MCF/ADR cells transfected with PKCdelta siRNA at 0.3 uM after 48 hrs by immunocytochemical analysis. Type of experiment: cell-based.
Experiment [2] is described as follows: Cell cycle arrest in human multidrug resistant MCF/ADR cells assessed as accumulation at G0/G1 phase at 0.3 uM after 48 hrs by propidium fluorescence flow cytometry. Type of experiment: functional, cell-based. On the technique in general: Flow cytometry measures light scatter and fluorescence of single cells or particles in a stream.
For experiment [3], the system named is MCF/ADR. Put plainly: Induction of JNK p54 isoform phosphorylation in human multidrug resistant MCF/ADR cells at 0.3 uM after 48 hrs by immunoblot analysis. Type of experiment: cell-based.
Experiment [4] has as its system MCF/WT. The experiment can be described thus: Induction of apoptosis in human drug sensitive MCF/WT cells assessed as annexin V binding to phosphatidylserine at 0.3 uM after 6 hrs. The format is functional, cell-based.
Experiment [5] is described as follows: Cell cycle arrest in human multidrug resistant MCF/ADR cells assessed as accumulation at S phase at 0.3 uM after 48 hrs by propidium fluorescence flow cytometry. The format is functional, cell-based.
A short description of experiment [6]: Inhibition of PKA.
Experiment [7] concerns the target Transcription factor Jun (Homo sapiens) (UniProt P05412). The experiment can be described thus: Induction of c-Jun serine 73 phosphorylation in human multidrug resistant MCF/ADR cells at 0.3 uM. Type of experiment: cell-based.
Experiment [8] can be described thus: Cell cycle arrest in human multidrug resistant MCF/ADR cells assessed as accumulation at S phase at 0.3 uM after 24 hrs by propidium fluorescence flow cytometry. Type of experiment: functional, cell-based.
Experiment [9] is described as follows: Effect on cell morphology in human multidrug resistant MCF/ADR cells assessed as floating cells with intact plasma membrane at 0.3 uM after 72 hrs by trypan blue dye exclusion test. Type of experiment: functional.
Experiment [10] concerns the target Transcription factor Jun (Homo sapiens) (UniProt P05412). Put plainly: Reduction in induction of phosphorylated form of c-Jun in SP600125 pretreated human multidrug resistant MCF/ADR cells at 0.3 uM after 48 hrs by immunoblot analysis. The format is cell-based. In general terms: Immunoblotting shows a protein as a band on a membrane.
In experiment [11] the test system is MCF/WT. Put plainly: Increase in Bcl-x/l levels in human drug-sensitive MCF/WT cells at 0.3 uM by immunoblot analysis. Type of experiment: functional, cell-based.
The target of experiment [12] is Transcription factor Jun (Homo sapiens) (UniProt P05412). The experiment can be described thus: Reduction in induction of c-Jun expression in human multidrug resistant MCF/ADR cells at 0.3 uM after 48 hrs by immunoblot analysis in presence of pan-specific caspase inhibitor. Type of experiment: cell-based.
The test system of experiment [13] is MCF/ADR. The experiment can be described thus: Induction of apoptosis in human multidrug resistant MCF/ADR cells assessed as annexin V binding to phosphatidylserine at 0.3 uM after 6 hrs. The format is functional, cell-based.
Experiment [14] addresses Transcription factor Jun (Homo sapiens) (UniProt P05412). Put plainly: Reduction in induction of c-Jun phosphorylation in human multidrug resistant MCF/ADR cells transfected with c-Jun siRNA at 0.3 uM after 48 hrs by immunoblot analysis. The format is cell-based.
The next experiment concerns MCF. The experiment can be described thus: Induction of c-Jun expression in human drug-sensitive MCF cells at 0.3 uM. Type of experiment: functional, cell-based.
Experiment [15] has as its system MCF/ADR. The experiment can be described thus: Increase in p21CIP accumulation in human multidrug resistant MCF/ADR cells at 0.3 uM after 48 hrs by immunoblot analysis. Type of experiment: functional, cell-based.
In experiment [16] the target is Transcription factor Jun (Homo sapiens) (UniProt P05412). The experiment can be described thus: Induction of c-Jun serine 63 phosphorylation in human multidrug resistant MCF/ADR cells at 0.3 uM. Type of experiment: cell-based.
The target is the same in experiment [17]. Put plainly: Reduction in induction of c-Jun phosphorylation in human multidrug resistant MCF/ADR cells at 0.3 uM after 48 hrs by immunoblot analysis in presence of rottlerin. The format is cell-based.
Experiment [18] is described as follows: Inhibition of nuclear protein kinase 1.
Experiment [19] in a line: Cell cycle arrest in human drug-sensitive MCF/WT cells assessed as accumulation at S phase at 0.3 uM after 24 hrs by propidium fluorescence flow cytometry. The format is functional, cell-based.
Experiment [20] is described as follows: Cell cycle arrest in human multidrug resistant MCF/ADR cells assessed as accumulation at S phase at 0.3 uM after 72 hrs by propidium fluorescence flow cytometry. The format is functional, cell-based.
The target in experiment [21] is Bcl-2-like protein 1 (Homo sapiens) (UniProt Q07817). Put plainly: Inhibition of induction of Bcl-x/s phosphorylation in human multidrug resistant MCF/ADR cells at 0.3 uM after 48 hrs in presence of SP600125. Type of experiment: functional, cell-based.
Experiment [22] in a line: Cell cycle arrest in human multidrug resistant MCF/ADR cells assessed as accumulation at sub G0/G1 phase at 0.3 uM after 72 hrs by propidium fluorescence flow cytometry. The format is functional, cell-based.
Experiment [23] has as its system MCF/ADR. Put plainly: Increase in Bcl-x/l levels in human multidrug resistant MCF/ADR cells at 0.3 uM by immunoblot analysis. The format is functional, cell-based.

Drawing on ChEMBL document CHEMBL1156449, “The nucleoside analog sangivamycin induces apoptotic cell death in breast carcinoma MCF7/adriamycin-resistant cells via protein kinase Cdelta and JNK activation” (J Biol Chem, 2007), this text covers Activity, IC50 and Ki for 1 compound.

The source made the active and inactive calls. The rule behind the calls is not given here.

Broadly, the IC50 is the midpoint of a concentration-inhibition curve. Low values mean inhibition by little substance, high ones a need for much substance. A word on the Ki: it is a dissociation constant, usually derived from enzyme kinetics or from competition with a known ligand. Low readings indicate tighter binding, high ones weaker binding.

Chain of Transcription factor Jun (Homo sapiens) (P05412 whole entry): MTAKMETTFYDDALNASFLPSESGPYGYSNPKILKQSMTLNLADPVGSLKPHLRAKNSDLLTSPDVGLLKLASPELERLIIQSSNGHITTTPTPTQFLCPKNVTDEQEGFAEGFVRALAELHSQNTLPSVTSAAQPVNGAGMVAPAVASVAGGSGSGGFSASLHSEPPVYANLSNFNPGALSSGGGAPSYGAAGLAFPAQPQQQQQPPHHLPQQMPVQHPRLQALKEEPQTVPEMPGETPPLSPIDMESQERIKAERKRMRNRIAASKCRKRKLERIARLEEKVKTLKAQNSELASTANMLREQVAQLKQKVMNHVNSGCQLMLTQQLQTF
Chain of Bcl-2-like protein 1 (Homo sapiens) (Q07817 whole entry): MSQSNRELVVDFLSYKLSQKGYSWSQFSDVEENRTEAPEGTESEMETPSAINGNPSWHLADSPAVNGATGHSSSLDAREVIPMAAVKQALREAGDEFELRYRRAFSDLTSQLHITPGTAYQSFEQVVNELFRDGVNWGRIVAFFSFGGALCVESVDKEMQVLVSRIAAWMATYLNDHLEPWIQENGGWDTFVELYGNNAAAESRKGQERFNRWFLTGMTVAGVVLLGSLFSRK

For the compound `NC(=O)c1cn([C@@H]2O[C@H](CO)[C@@H](O)[C@H]2O)c2ncnc(N)c12` [SANGIVAMYCIN], the outcome (in experiment [1]; in the experiment with MCF/WT [4]; in experiment [12]; in the experiment with MCF/ADR [15]) was inactive. Moreover, the Activity in [2] is 20%; in experiment [5], 23%; in experiment [8], 25%; in experiment [9] it was 95%; in experiment [19], 23%; in experiment [20] it was 25%. In addition, the Activity in experiment [22] is 50%. Further, the result (in the experiment with MCF/ADR [3]; in [7]; in experiment [10]; with MCF/WT [11]; with MCF/ADR [13]; in experiment [14]) was Active. The outcome (in the experiment on MCF; in experiment [16]; in experiment [17]; in experiment [21]; with MCF/ADR [23]) was Active. For the same compound, the IC50 in experiment [6] stood at 50 µM. The affinity in experiment [18], expressed as Ki, was 200 µM.
